Results reported in the CheMixHub ionic liquid set.
± gives the uncertainty stated by the source.

Test: xn = mol fraction of the nth substance listed
Details: 308.15 K, 101 kPa

CCCCCCCCCCCCCCCC[n+]1ccccc1.[Cl-] + C[C@@H](O)[C@H](N)C(=O)O + O
Details	electrical conductivity [S/m]
x2 = 0, x1 = 5.4e-07	0.000222 ± 2e-06
x2 = 0, x1 = 9e-07	0.00029 ± 3e-06
x2 = 0, x1 = 1.62e-06	0.0004 ± 4e-06
x2 = 0, x1 = 2.34e-06	0.000465 ± 5e-06
x2 = 0, x1 = 2.88e-06	0.000581 ± 6e-06
x2 = 0, x1 = 3.78e-06	0.000705 ± 7e-06
x2 = 0, x1 = 4.5e-06	0.000794 ± 8e-06
x2 = 0, x1 = 5.59e-06	0.000937 ± 9e-06
x2 = 0, x1 = 6.85e-06	0.00106 ± 1.1e-05
x2 = 0, x1 = 7.93e-06	0.001222 ± 1.2e-05
x2 = 0, x1 = 9.01e-06	0.001438 ± 1.4e-05
x2 = 0, x1 = 1.009e-05	0.00159 ± 1.6e-05
x2 = 0, x1 = 1.117e-05	0.001701 ± 1.7e-05
x2 = 0, x1 = 1.442e-05	0.00209 ± 2.1e-05
x2 = 0, x1 = 1.55e-05	0.00219 ± 2.2e-05
x2 = 0, x1 = 1.766e-05	0.00237 ± 2.4e-05
x2 = 0, x1 = 1.982e-05	0.00248 ± 2.5e-05
x2 = 0, x1 = 2.18e-05	0.00259 ± 2.6e-05
x2 = 0, x1 = 2.397e-05	0.00264 ± 2.6e-05
x2 = 0, x1 = 2.595e-05	0.00278 ± 2.8e-05
x2 = 0, x1 = 2.991e-05	0.00297 ± 3e-05
x2 = 0, x1 = 3.406e-05	0.00314 ± 3.1e-05
x2 = 0, x1 = 3.784e-05	0.00328 ± 3.3e-05
x2 = 0, x1 = 4.162e-05	0.00342 ± 3.4e-05
x2 = 0, x1 = 4.541e-05	0.00356 ± 3.6e-05
x2 = 0, x1 = 4.919e-05	0.00369 ± 3.7e-05
x2 = 0, x1 = 5.099e-05	0.00375 ± 3.8e-05
x2 = 0, x1 = 5.982e-05	0.00403 ± 4e-05
x2 = 0, x1 = 6.829e-05	0.00432 ± 4.3e-05
x2 = 0, x1 = 7.64e-05	0.00454 ± 4.5e-05
x2 = 0, x1 = 8.415e-05	0.00477 ± 4.8e-05
x2 = 0, x1 = 9.171e-05	0.00497 ± 5e-05
x2 = 0, x1 = 9.892e-05	0.00516 ± 5.2e-05
x2 = 0, x1 = 0.0001058	0.00533 ± 5.3e-05
x2 = 0, x1 = 0.0001124	0.0055 ± 5.5e-05
x2 = 0, x1 = 0.0001189	0.00565 ± 5.7e-05
x2 = 2.018e-05, x1 = 5.4e-07	0.000282 ± 3e-06
x2 = 2.018e-05, x1 = 9e-07	0.00035 ± 4e-06
x2 = 2.018e-05, x1 = 1.62e-06	0.000431 ± 4e-06
x2 = 2.018e-05, x1 = 2.34e-06	0.000514 ± 5e-06
x2 = 2.018e-05, x1 = 2.88e-06	0.000652 ± 7e-06
x2 = 2.018e-05, x1 = 3.78e-06	0.000768 ± 8e-06
x2 = 2.018e-05, x1 = 4.51e-06	0.00084 ± 8e-06
x2 = 2.018e-05, x1 = 5.59e-06	0.001003 ± 1e-05
x2 = 2.018e-05, x1 = 6.67e-06	0.00115 ± 1.2e-05
x2 = 2.018e-05, x1 = 7.93e-06	0.00127 ± 1.3e-05
x2 = 2.018e-05, x1 = 9.01e-06	0.00139 ± 1.4e-05
x2 = 2.018e-05, x1 = 1.009e-05	0.001517 ± 1.5e-05
x2 = 2.018e-05, x1 = 1.117e-05	0.00165 ± 1.7e-05
x2 = 2.018e-05, x1 = 1.334e-05	0.00188 ± 1.9e-05
x2 = 2.018e-05, x1 = 1.55e-05	0.00214 ± 2.1e-05
x2 = 2.018e-05, x1 = 1.766e-05	0.0023 ± 2.3e-05
x2 = 2.018e-05, x1 = 1.964e-05	0.00249 ± 2.5e-05
x2 = 2.018e-05, x1 = 2.181e-05	0.00259 ± 2.6e-05
x2 = 2.018e-05, x1 = 2.379e-05	0.00271 ± 2.7e-05
x2 = 2.018e-05, x1 = 2.595e-05	0.00282 ± 2.8e-05
x2 = 2.018e-05, x1 = 2.992e-05	0.00299 ± 3e-05
x2 = 2.018e-05, x1 = 3.388e-05	0.00317 ± 3.2e-05
x2 = 2.018e-05, x1 = 3.766e-05	0.00332 ± 3.3e-05
x2 = 2.018e-05, x1 = 4.163e-05	0.00348 ± 3.5e-05
x2 = 2.018e-05, x1 = 4.523e-05	0.00361 ± 3.6e-05
x2 = 2.018e-05, x1 = 4.902e-05	0.00375 ± 3.8e-05
x2 = 2.018e-05, x1 = 5.082e-05	0.00383 ± 3.8e-05
x2 = 2.018e-05, x1 = 5.965e-05	0.00411 ± 4.1e-05
x2 = 2.018e-05, x1 = 6.812e-05	0.00438 ± 4.4e-05
x2 = 2.018e-05, x1 = 7.623e-05	0.0046 ± 4.6e-05
x2 = 2.018e-05, x1 = 8.398e-05	0.00483 ± 4.8e-05
x2 = 2.018e-05, x1 = 9.136e-05	0.00502 ± 5e-05
x2 = 2.018e-05, x1 = 9.857e-05	0.0052 ± 5.2e-05
x2 = 2.018e-05, x1 = 0.0001054	0.00538 ± 5.4e-05
x2 = 2.018e-05, x1 = 0.0001121	0.00553 ± 5.5e-05
x2 = 2.018e-05, x1 = 0.0001186	0.00568 ± 5.7e-05
